From ChEMBL document CHEMBL6177981, “Bardoxolone Derivatives as Novel Pseudo-Natural Necroptosis Inhibitors by Destabilizing HSP90 Client Proteins” (J Med Chem, 2025)
pKd: −log10 of the molar value. Activity calls are given as the source filed them. No cut-off for these calls is given here.

Assays:
HT-29 [1] = assay: Downregulation of RIPK3 protein level in human HT-29 cells at 3 to 6 uM incubated for 9 hrs by Western blot analysis; assay type: functional, cell-based; details: dose 3-6 µM
HT-29 [2] = assay: Downregulation of RIPK1 protein level in human HT-29 cells at 6 uM preincubated with MLN4924 for 2 hrs followed by compound addition and measured after 9 hrs by Western blot analysis; assay type: functional, cell-based
HT-29 [3] = assay: Downregulation of MLKL protein level in human HT-29 cells at 3 to 6 uM incubated for 9 hrs by Western blot analysis; assay type: functional, cell-based; details: dose 3-6 µM
[4] = Acute toxicity in male C57BL/6J mouse assessed as inflammatory cell infiltration in heart at 2 g/Kg, IG measured after 72 hrs by H and E staining based analysis; assay type: tissue-based; details: in vivo, po, 2000 mg/kg
HT-29 [5] = assay: Anti-necroptotic activity in TSZ-induced human HT-29 cells assessed as increase in cell viability preincubated with compound followed by Z-VAD-FMK, SM164 and TNFalpha addition and measured after 12 hrs by CellTiter-Lumi luminescent cell viability assay; assay type: functional, cell-based; details: dose 0.156-10 µM
HeLa [6] = assay: Inhibition of RIPK1 protein expression in RIPK3-deficient human HeLa cells at 0.75 to 6 uM incubated for 9 hrs by Western blot analysis; assay type: functional, cell-based; details: dose 0.75-6 µM
[7] = Acute toxicity in male C57BL/6J mouse assessed as inflammatory cell infiltration in intestine at 2 g/Kg, IG measured after 72 hrs by H and E staining based analysis; assay type: tissue-based; details: in vivo, po, 2000 mg/kg
[8] = Acute toxicity in male C57BL/6J mouse assessed as inflammatory cell infiltration in spleen at 2 g/Kg, IG measured after 72 hrs by H and E staining based analysis; assay type: tissue-based; details: in vivo, po, 2000 mg/kg
HT-29 [9] = assay: Upregulation of HSP70 protein level in TSZ-induced human HT-29 cells at 10 uM preincubated with compound followed by Z-VAD-FMK, SM164 and TNFalpha stimulation and measured after 6 hrs by Western blot analysis; assay type: functional, cell-based
Mus musculus [10] = assay: (§1) Anti-necroptotic activity in TNFalpha/Z-VAD-FMK induced SIRS male C57BL/6J mouse model assessed as survival rate at 10 mg/kg, po pre-administered with compound via gavage for 2 hrs followed by […] of Z-VAD-FMK stimulation for 15 mins with subsequent TNF-alpha stimulation for 1 hrs and re-current […] of Z-VAD-FMK stimulation and measured after 8 hrs post SIRS induction relative to control; assay type: functional; details: time 10 hrs
HT-29 [11] = assay: Downregulation of MLKL protein level in human HT-29 cell supernatant at 6 uM measured after 9 hrs by Western blot analysis; assay type: functional, cell-based
[12] = Acute toxicity in male C57BL/6J mouse assessed as hemorrhage in stomach at 2 g/Kg, IG measured after 72 hrs by H and E staining based analysis; assay type: tissue-based; details: in vivo, po, 2000 mg/kg
HT-29 [13] = assay: Effect on RIPK3 protein level in human HT-29 cell precipitate at 6 uM measured after 9 hrs by Western blot analysis; assay type: functional, cell-based
[14] = biological target: Heat shock protein HSP 90-alpha (Homo sapiens, UniProt P07900); assay: Binding affinity to N-terminal 6His/SUMO-tagged recombinant human HS90AA1 assessed as dissociation constant incubated for 30 mins by MST analysis
Mus musculus [15] = assay: as §1, with “reduction in IL-1beta in serum” for “survival rate at 10 mg/kg, po”, “pre-administered orally” for “pre-administered”, “by ELISA” for “relative to control”; assay type: functional, organism-based; details: dose 2.5-10 mg/kg, route po, time 10.0 hrs
HT-29 [16] = assay: Upregulation of HSP70 protein level in TSZ-induced human HT-29 cells at 0.625 to 10 uM preincubated with compound followed by Z-VAD-FMK, SM164 and TNFalpha stimulation and measured after 6 hrs by Western blot analysis; assay type: functional, cell-based; details: dose 0.625-10 µM
Mus musculus [17] = assay: (§2) Anti-necroptotic activity in TNFalpha/Z-VAD-FMK induced SIRS male C57BL/6J mouse model assessed as reduction in IL-1beta in spleen at 5 to 10 mg/kg, po pre-administered with compound via gavage for 2 hrs followed by […] of Z-VAD-FMK stimulation for 15 mins with subsequent TNF-alpha stimulation for 1 hrs and re-current […] of Z-VAD-FMK stimulation and measured after 8 hrs post SIRS induction by ELISA; assay type: functional, organism-based; details: dose 5-10 mg/kg, time 10.0 hrs
[18] = biological target: T1, Receptor-interacting serine/threonine-protein kinase 1 (Homo sapiens) (UniProt Q13546); assay: Inhibition of RIPK1 phosphorylation in TSZ-induced human HT-29 cells at 10 uM preincubated with compound followed by Z-VAD-FMK, SM164 and TNFalpha stimulation and measured within 6 hrs by Western blot analysis relative to control; assay type: cell-based
T1 sequence (whole entry): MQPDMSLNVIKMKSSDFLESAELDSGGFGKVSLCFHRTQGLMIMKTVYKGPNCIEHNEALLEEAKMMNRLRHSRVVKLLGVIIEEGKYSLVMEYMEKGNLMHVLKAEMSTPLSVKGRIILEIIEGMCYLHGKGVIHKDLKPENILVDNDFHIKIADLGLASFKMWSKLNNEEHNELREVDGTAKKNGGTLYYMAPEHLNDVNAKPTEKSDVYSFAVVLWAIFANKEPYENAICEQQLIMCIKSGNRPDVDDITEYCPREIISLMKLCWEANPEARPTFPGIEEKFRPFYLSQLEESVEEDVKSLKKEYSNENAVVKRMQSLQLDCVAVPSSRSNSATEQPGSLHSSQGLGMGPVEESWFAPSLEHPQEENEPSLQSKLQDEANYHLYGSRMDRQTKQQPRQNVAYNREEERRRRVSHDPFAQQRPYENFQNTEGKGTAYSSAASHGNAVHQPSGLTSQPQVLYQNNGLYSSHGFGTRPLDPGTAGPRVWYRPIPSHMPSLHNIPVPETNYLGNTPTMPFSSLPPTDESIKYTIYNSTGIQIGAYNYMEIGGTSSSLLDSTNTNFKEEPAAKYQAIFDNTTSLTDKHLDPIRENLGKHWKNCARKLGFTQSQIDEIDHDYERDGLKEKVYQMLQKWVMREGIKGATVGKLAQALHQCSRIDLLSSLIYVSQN

[19] = biological target: Receptor-interacting serine/threonine-protein kinase 3 (Homo sapiens) (UniProt Q9Y572); assay: Inhibition of RIPK3 phosphorylation in TSZ-induced human HT-29 cells at 10 uM preincubated with compound followed by Z-VAD-FMK, SM164 and TNFalpha stimulation and measured within 6 hrs by Western blot analysis relative to control; assay type: cell-based
HeLa [20] = assay: Inhibition of MLKL protein expression in RIPK3-deficient human HeLa cells at 6 uM preincubated with MG132 for 2 hrs followed by compound addition and measured after 9 hrs by Western blot analysis; assay type: functional, cell-based
[21] = Acute toxicity in male C57BL/6J mouse assessed as structural changes in brain at 2 g/Kg, IG measured after 72 hrs by H and E staining based analysis; assay type: tissue-based; details: in vivo, po, 2000 mg/kg
Mus musculus [22] = assay: as §2, with “IL6” for “IL-1beta”, “serum” for “spleen at 5 to 10 mg/kg, po”, “pre-administered orally” for “pre-administered”; assay type: functional, organism-based; details: dose 2.5-10 mg/kg, route po, time 10.0 hrs
HT-29 [23] = assay: Anti-apoptotic activity in TC-induced human HT-29 cells assessed as increase in cell viability at 1.25 to 20 uM preincubated with compound followed by TNF-alpha and cycloheximide addition and measured after 24 hrs by CellTiter-Lumi luminescent cell viability assay; assay type: functional, cell-based; details: dose 1.25-20 µM
HT-29 [24] = assay: Downregulation of RIPK3 protein level in human HT-29 cells at 6 uM preincubated with MLN4924 for 2 hrs followed by compound addition and measured after 9 hrs by Western blot analysis; assay type: functional, cell-based

Receptor-interacting serine/threonine-protein kinase 3 (Homo sapiens), sequence (Q9Y572 whole entry, looked up): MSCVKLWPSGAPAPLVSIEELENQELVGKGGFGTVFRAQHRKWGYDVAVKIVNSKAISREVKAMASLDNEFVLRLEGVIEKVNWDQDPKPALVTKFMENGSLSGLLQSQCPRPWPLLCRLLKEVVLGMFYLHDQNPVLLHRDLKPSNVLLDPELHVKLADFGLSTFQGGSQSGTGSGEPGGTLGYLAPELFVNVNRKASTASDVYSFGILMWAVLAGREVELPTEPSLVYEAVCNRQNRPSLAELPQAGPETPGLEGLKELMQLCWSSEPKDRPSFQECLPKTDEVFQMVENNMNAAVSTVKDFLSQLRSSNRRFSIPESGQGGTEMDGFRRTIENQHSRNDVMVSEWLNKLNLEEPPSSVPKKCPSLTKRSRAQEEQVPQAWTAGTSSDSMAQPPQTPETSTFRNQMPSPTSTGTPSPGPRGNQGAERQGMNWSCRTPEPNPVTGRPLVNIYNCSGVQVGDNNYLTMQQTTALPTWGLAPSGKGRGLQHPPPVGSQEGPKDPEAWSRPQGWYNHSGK

For `Cn1ccc(-c2ccc(NC(=O)[C@]34CCC(C)(C)C[C@H]3[C@H]3C(=O)C=C5[C@@]6(C)C=C(C#N)C(=O)C(C)(C)[C@@H]6CC[C@@]5(C)[C@]3(C)CC4)cc2)n1`, the Activity (HT-29 [1]) was “Active; Significant Effect Observed”, the Activity (HT-29 [2]) was “Active” and the Activity (HT-29 [3]) was “Active; Significant Effect Observed”. For the same molecule, the Activity [4] was “Non-toxic”, the Activity (HT-29 [5]) was “Dose-dependent-effect” and the inhibition (HeLa [6]) was “Active”. For the same molecule, the Activity [7] was “Non-toxic”, the Activity [8] was “Non-toxic” and the Activity (HT-29 [9]) was “inactive”. The survival at 10 mg/kg (Mus musculus [10]) was 100%, the Activity (HT-29 [11]) was “Active” and the Activity [12] was “Non-toxic”. The Activity (HT-29 [13]) was “inactive”, the pKd [14] was 6.73 and the Activity (Mus musculus [15]) was “Dose-dependent-effect”. The Activity (HT-29 [16]) was “inactive”, the Activity (Mus musculus [17]) was “Active” and the inhibition [18] was 100%. For the same molecule, the inhibition [19] was 100%, the inhibition (HeLa [20]) was “Active” and the Activity [21] was “Non-toxic”. The Activity (Mus musculus [22]) was “Dose-dependent-effect”, the Activity (HT-29 [23]) was “inactive” and the Activity (HT-29 [24]) was “Active”.
